Source: patent US10597542B2, “Methods of applying active components” (HONEYWELL INTERNATIONAL INC., priority 2011, dated 2020)

Assay: Solubility of material samples covered with tr-1233zd or cis-1233zd in vials (Examples 8-13)
Settings: for Amount of heparin dissolved: remained clear overnight
Source text: (§1) Test samples of commercial acrylic plastic sheet cut into ¼″×2″ piece were placed into 20 cc vials with septum screw cap. Solvents (tr-1233zd & cis-1233zd) were slowly added by a syringe to cover the entire plastic sample inside the vial. The purpose was to observe if any degradation happens to the plastic.
as §1, with “high impact styrene” for “acrylic”
Test samples of commercial acrylonitrile-butadiene-styrene (ABS) sheet cut into ¼″×2″ piece were placed into 20 cc vials with septum screw cap. Solvents (tr-1233zd & cis-1233zd) were slowly added by a syringe to cover the entire plastic sample inside the vial.
The experiment in Example 8 is repeated with commercial polycarbonate material.
The experiment of Example 8 was repeated with commercial Dow Polaroid™ Au-608-B acrylic material. This material is used in various coatings.
The experiment of Example 8 was repeated with blood anti-coagulant material Heparin, which is used as a coating in medical devices.

Heparin
Solubility / effect of solvent on the material: None of the solvents could dissolve the material | Amount of heparin dissolved (cis-1233zd with 2 wt % methanol): 1.19 wt % | Amount of heparin dissolved (tr-1233zd with 2 wt % methanol): 0.794 wt %
